From article PMC12320299 (Chemical Science, 2025)

Tested on: SW480 cancer cells
Assay: Proteome profiling of compound-treated SW480 cancer cells (24 h, approx. IC50, CYT and NE fractions)
Format: cell-based, human
Description: To gain insight into potential modes of action and derive structure–activity relationships on a molecular level, proteomic profiling experiments were carried out based on label-free quantification (LFQ) by nano-liquid chromatography tandem mass spectrometry (nLC-MS/MS). […] Six replicates were used per condition. The perturbations were evaluated at subcellular resolution by fractionating cells into cytoplasmic (CYT) and nuclear (NE) protein fractions. Those have been separately proteolytically digested and analysed (Fig. 3A). The perturbations with the 3-Et-NQ and 3-Morph-NQ complexes were performed against their respective solvent-treated controls (CON), yielding a total of 72 samples. […] Statistical significance of individual protein regulations was calculated by multiple testing-corrected P-values based on 5% false discovery rate (FDR = 0.05 and S0 = 0.1).
The position of each group represents the summed fold-changes of the individual proteins in the group according to the subcellular space, i.e., CYT and NE fractions, while the size represents the number of proteins in each group. […]
Proteome profiling of compound-treated SW480 cancer cells […]
cells per well and left to adhere in complete cell culture medium. After 24 h, the medium was exchanged with fresh complete medium (DMSO mock control) or fresh medium containing […]
solution in DMSO, respectively) and incubated for another 24 h. Each condition was carried out in hexuplicates. The cells were processed according to a nucleocytoplasmic fractionation protocol as previously described.3 All steps were performed on ice. The medium was removed, and the cells were washed twice with 1×PBS (phosphate buffered saline, 3 mL). Then, PBS was thoroughly removed. Isotonic lysis buffer (10 mM HEPES, 10 mM NaCl, 3.5 mM MgCl2, 1 mM EGTA, 0.25 M Sucrose, 0.5% Triton X-100) containing protease inhibitors (1% PMSF, Sigma, and 1% protease and phosphatase inhibitor cocktail, Roche) was added to the flasks, the cells were scraped off and transferred into labelled 15 mL Falcon tubes. The cellular membrane was ruptured using shear stress by pressing the cell suspension through a syringe 9–12 times. Membrane rupture with intact nuclei was monitored under a microscope. After centrifugation (960 g, 5 min), the supernatant containing the cytoplasmic (CYT) proteins was transferred into new tubes containing ice-cold ethanol (1 : 5, HPLC grade) and precipitated […]
overnight at –20 °C. The pellet containing the nuclei was incubated with a hypertonic solution (10 mM Tris-HCl, 1 mM EDTA and 0.5 M NaCl) and subsequently diluted 1:10 with NP-40 buffer (10 mm Tris-HCl, 1 mm EDTA and 0.5% Triton X-100) containing protease inhibitors (1% PMSF, Sigma, and 1% protease and phosphatase inhibitor cocktail, Roche). After centrifugation (960 g, 5 min), the soluble nuclear (NE) proteins were also transferred into new tubes containing ice-cold ethanol (1 : 5, HPLC grade) and precipitated overnight at –20 °C.
The precipitated proteins were finally pelleted by centrifugation (5000 g, 30 min, 4 °C), the solution was decanted and the pellet dried under vacuum.

Cc1ccc(C(C)C)cc1.O=C1C(CN2CCOCC2)=C2[O][Ru][O]C2(n2cccn2)c2ccccc21 (stereo not drawn) [Compound 1b]
N° significantly regulated proteins, Total (CYT and NE): 1498
GO BP Cell cycle, summed fold-changes (CYT fraction): -2.0
GO BP Cell division, summed fold-changes (CYT fraction): 1.8
GO BP Chromatin organization, summed fold-changes (CYT fraction): -9.6
GO BP DNA damage response, summed fold-changes (CYT fraction): -1.3
GO BP DNA repair, summed fold-changes (CYT fraction): -5.7
GO BP DNA replication, summed fold-changes (CYT fraction): -0.75
GO BP Intracellular protein transport, summed fold-changes (CYT fraction): -1.2
GO BP Mitotic cytokinesis, summed fold-changes (CYT fraction): 0.635
GO BP Negative regulation of DNA-templated transcription, summed fold-changes (CYT fraction): -4.7
GO BP Nucleocytoplasmic transport, summed fold-changes (CYT fraction): 0.157
GO BP Positive regulation of DNA-templated transcription, summed fold-changes (CYT fraction): -4.1
GO BP Proteasome-mediated ubiquitin-dependent protein catabolic process, summed fold-changes (CYT fraction): 0.556
GO BP Protein folding, summed fold-changes (CYT fraction): 0.665
GO BP Protein stabilization, summed fold-changes (CYT fraction): 1.4
GO BP Protein transport, summed fold-changes (CYT fraction): -4.1
GO BP Purine nucleotide biosynthetic process, summed fold-changes (CYT fraction): -1.4
GO BP RNA splicing, summed fold-changes (CYT fraction): 2.7
GO BP Regulation of apoptotic process, summed fold-changes (CYT fraction): -0.9
GO BP Regulation of cell fate specification, summed fold-changes (CYT fraction): -2.6
GO BP Regulation of double-strand break repair, summed fold-changes (CYT fraction): -0.5
GO BP Regulation of stem cell differentiation, summed fold-changes (CYT fraction): -2.1
GO BP Response to oxidative stress, summed fold-changes (CYT fraction): -2.8
GO BP Ribosomal small subunit biogenesis, summed fold-changes (CYT fraction): 3.8
GO BP Ribosome biogenesis, summed fold-changes (CYT fraction): 1.0
GO BP Ubiquitin-dependent protein catabolic process, summed fold-changes (CYT fraction): -4.3
GO BP Vesicle-mediated transport, summed fold-changes (CYT fraction): -2.0
GO BP mRNA processing, summed fold-changes (CYT fraction): 2.8
GO BP mRNA splicing, via spliceosome, summed fold-changes (CYT fraction): 5.8
GO BP mRNA transport, summed fold-changes (CYT fraction): 3.1
GO BP rRNA processing, summed fold-changes (CYT fraction): 6.9
GO CC Azurophil granule lumen, summed fold-changes (CYT fraction): -3.8
GO CC Chromatin, summed fold-changes (CYT fraction): -3.8
GO CC Chromosome, centromeric region, summed fold-changes (CYT fraction): 2.2
GO CC Chromosome, summed fold-changes (CYT fraction): 0.0303
GO CC Chromosome, telomeric region, summed fold-changes (CYT fraction): -5.4
GO CC Condensin complex, summed fold-changes (CYT fraction): 1.7
GO CC Cytoskeleton, summed fold-changes (CYT fraction): 2.2
GO CC Endosome, summed fold-changes (CYT fraction): -2.0
GO CC Extracellular exosome, summed fold-changes (CYT fraction): -48.5
GO CC Fibrillar center, summed fold-changes (CYT fraction): 1.3
GO CC Ficolin-1-rich granule lumen, summed fold-changes (CYT fraction): -4.9
GO CC Focal adhesion, summed fold-changes (CYT fraction): -5.9
GO CC Intracellular membrane-bounded organelle, summed fold-changes (CYT fraction): -2.0
GO CC Kinetochore, summed fold-changes (CYT fraction): 1.6
GO CC Lipid droplet, summed fold-changes (CYT fraction): -1.3
GO CC Lysosome, summed fold-changes (CYT fraction): -2.9
GO CC Microtubule cytoskeleton, summed fold-changes (CYT fraction): 1.6
GO CC Mitochondrion, summed fold-changes (CYT fraction): -13.5
GO CC Nuclear envelope, summed fold-changes (CYT fraction): -0.6
GO CC Nuclear speck, summed fold-changes (CYT fraction): 3.4
GO CC Nucleolus, summed fold-changes (CYT fraction): 1.4
GO CC Nucleoplasm, summed fold-changes (CYT fraction): -8.6
GO CC Nucleus, summed fold-changes (CYT fraction): -23.5
GO CC Proteasome complex, summed fold-changes (CYT fraction): 0.475
GO CC Protein-containing complex, summed fold-changes (CYT fraction): -2.9
GO CC Ribonucleoprotein complex, summed fold-changes (CYT fraction): 3.1
GO CC SCAR complex, summed fold-changes (CYT fraction): 0.9
GO CC Small-subunit processome, summed fold-changes (CYT fraction): 4.9
GO CC Spliceosomal complex, summed fold-changes (CYT fraction): 2.7
GO CC Transcription repressor complex, summed fold-changes (CYT fraction): -2.7
GO CC Vesicle, summed fold-changes (CYT fraction): -2.7
KEGG pathway ATP-dependent chromatin remodeling, summed fold-changes (CYT fraction): -1.8
KEGG pathway Apoptosis, summed fold-changes (CYT fraction): 2.5
KEGG pathway Basal transcription factors, summed fold-changes (CYT fraction): -1.0
KEGG pathway Biosynthesis of amino acids, summed fold-changes (CYT fraction): -5.4
KEGG pathway Biosynthesis of cofactors, summed fold-changes (CYT fraction): 2.8
KEGG pathway Cell cycle, summed fold-changes (CYT fraction): -3.3
KEGG pathway Nucleocytoplasmic transport, summed fold-changes (CYT fraction): 0.8
KEGG pathway Polycomb repressive complex, summed fold-changes (CYT fraction): -2.9
KEGG pathway Proteasome, summed fold-changes (CYT fraction): -0.152
KEGG pathway Ribosome biogenesis in eukaryotes, summed fold-changes (CYT fraction): 1.9
GO BP Cell cycle, summed fold-changes (NE fraction): 26.1
GO BP Cell division, summed fold-changes (NE fraction): 26.9
GO BP Chromatin organization, summed fold-changes (NE fraction): 28.0
